pIC50: −log10 of the molar value.
Key:
ZR-75-1 cells [1] = experiment: Cell proliferation assay, tritiated thymidine incorporation; assay type: cell-based, human; details: for cell proliferation: Example 1, six day period
Description: The βAED, 17 beta-oestradiol and tamoxifen were obtained from Sigma Chemical Company (St. Louis, Missouri). The αAED and Flutamide were obtained from Steriloid, Inc. (Walton, New Hampshire) and Schering Corporation (Kenilworth, New Jersey), respectively. All steroids except βAED were dissolved in ethanol. βAED was dissolved in DMSO:ETHOL (1:1 v/v). Stock solutions were filtered and kept at 4°C. For testing, stock solutions were diluted in media immediately before use. The final concentration of vehicle was always ≤ 0.2% in all samples, and this concentration had no significant cytotoxic effect on the human breast cell cancer cell line designated ZR-75-1 (American Type Culture Collection) as determined by trypan blue exclusion.
The ZR-75-1 cell line (passage 89) was obtained from the American Type Culture Collection (Rockville, Maryland). The cells were cultured in RPMI-1640 medium containing 10% heat-inactivated fetal calf serum, 200 µM L-glutamine, […], 1.5 U/ml penicillin, and 1.5 µg/ml streptomycin in 5% CO2 at 37°C. The cells were passaged twice weekly.
(§1) Cells were first seeded at initial density of 1x10^5 cells per ml in quadruplicates in 24 multi-well flat bottom plates (Costar). Cells were then allowed to adhere and grow in phenol red-free […] media supplemented with 10 % heat-inactivated fetal calf serum (FCS), 200 µM L-glutamine, 10 mM HEPES, 2.5 U/ml penicillin and 2.5 µg/ml streptomycin in 5% CO2 at 37°C. After 48 hours, four wells were sacrificed and counted to determine plating efficiency. In the remaining wells, medium was removed by aspiration and cells in each well were exposed to the media containing the specified steroid. The controls containing only medium or medium with vehicle were also prepared. In all samples, medium was changed every 48 hours. At the pre-established time-point. Cells were removed by trypsinization and washed. Cell number and viability were determined by trypan blue exclusion using a hemocytometer. Parallel cultures were also run to determine cell proliferation.
(§2) For cell proliferation assays, cell suspensions were prepared by trypsinization of cells from cultures prepared in accord with methods described above. Cell viability was determined by trypan blue exclusion. The cells were then seeded in flat-bottom 96-well microtiter plates at a density of 2X10^3 cells/well and were allowed to rest for 48 hours in order to adhere. Non-adherent dead cells were removed by aspiration. Cells were then grown in media without phenol red. Some of the media contained supplements as indicated above. The active agents or vehicle control were added to the media. The cells were then grown for six days. Media was changed on the samples every 48 hours. On day 6, cells were pulsed with 1 µCi[…] for the last 6 hours of incubation before harvesting onto glass filter using a HPD cell harvester (Cambridge Technology, Watertown, Massachusetts) and counted on a KLB scintillation counter.

RAW 264.7 = experiment: Proliferation of murine macrophage myeloma cells; assay type: cell-based; details: Example 9
Description: as §2
Effects of αAED at doses of 50 ηM and 100 ηM doses on murine macrophage myeloma cells (RAW 264.7, obtained from the American Type Culture Collection) was studied.

P388D1 cells = experiment: Growth of lymphoid neoplasm cells in the presence of RU486; assay type: cell-based; details: Example 8; RU486 at 0.5 µM and 1.0 µM
Description: as §2
Effect of αAED on growth of lymphoid neoplasm (P388D1 cells obtained from the American Type Culture Collection) in the presence of RU486 at concentration of 0.5 µM and 1.0 µM was studied in accord with the methods described above.

ZR-75-1 cells [2] = experiment: Cell count and viability by trypan blue exclusion; assay type: cell-based, human
Description: as §1
Initial tests were carried out to determine the optimal (maximal) dose of αAED required to inhibit growth of the ZR-75-1 cells in in vitro as determined by tritiated tymidine incorporation. […] To ensure that inhibition was not due to cytotoxicity, cell count and viability were assessed by trypan blue exclusion.

Structure (SMILES) | cell proliferation (ZR-75-1 cells [1]; 6.25 ηM) | cell proliferation (ZR-75-1 cells [1]; 25 ηM) | cell proliferation (ZR-75-1 cells [1]; 50 ηM) | proliferation of cells in the presence of βAED (ZR-75-1 cells [1]; Example 2, varied αAED with βAED constant at 2.5 ηM) | proliferation in the presence of estradiol (ZR-75-1 cells [1]; Example 3, higher doses of αAED with 1 ηM estradiol, 6 day period) | antiproliferative effects in the presence of Flutamide (ZR-75-1 cells [1]; Example 4, ≥6.25 ηM αAED) | synergism with RU486 (ZR-75-1 cells [1]; Example 5, RU486 1 µM) | proliferation of cells in the presence of RU486 (ZR-75-1 cells [1]; Example 5, concentrations of αAED with 0.5 µM RU486) | pIC50 (ZR-75-1 cells [1]; Homo sapiens, dose and time-dependent inhibition of ZR-75-1 growth, read-out: half-maximal dose (anti-proliferative effect)) | growth of ZR-75-1 cells (ZR-75-1 cells [1]; concentration of 25 ηM or greater) | proliferation of ZR-75-1 cells (ZR-75-1 cells [1]; concentrations between 6.25 and 12.5 ηM, P<0.01 vs vehicle control) | maximal dose (anti-proliferative effect) (ZR-75-1 cells [1]; dose and time-dependent inhibition of ZR-75-1 growth) | effect on the growth of cells (ZR-75-1 cells [1]; doses ranging from 3.13 ηM to 50 ηM, compared to vehicle control after 6 days) | proliferation (RAW 264.7; 50 ηM) | proliferation (RAW 264.7; 100 ηM) | growth of lymphoid neoplasm in combination with RU486 (P388D1 cells) | cytotoxicity (cell count and viability) (ZR-75-1 cells [2]) | antiproliferative effect on the growth of ZR-75-1 cells (ZR-75-1 cells [1]; alone at 100 ηM)
C[C@]12CC[C@H]3[C@@H](CC=C4C[C@@H](O)CC[C@@]43C)[C@@H]1CC[C@H]2O [αAED, 5-androstene 3ß,17α diol] | increasing proliferation | decreasing cell proliferation | marked decrease | decreased proliferation at all concentrations | suppressed proliferation even in the presence of estradiol | greatly enhanced | even greater | synergistic action to decrease proliferation of cells | 7.30 | significantly inhibited the growth | stimulated proliferation | 100 ηM | biphasic effect | significant inhibition of proliferation | significant inhibition of proliferation | increased effectiveness over use of one agent | not toxic to the cells | 
C[C@]12CC[C@H]3[C@@H](CC=C4C[C@@H](O)CC[C@@]43C)[C@@H]1CC[C@@H]2O [βAED, 5-androstene 3ß,17ß diol, reference compound] |  |  |  |  |  |  |  |  |  |  |  |  |  |  |  |  |  | did not have any antiproliferative effect
